Laboratory results taken from ChEMBL document CHEMBL3758083, “Design and discovery of 4-anilinoquinazoline-acylamino derivatives as EGFR and VEGFR-2 dual TK inhibitors” (Eur J Med Chem, 2016).

Assays:
[1] = target: Epidermal growth factor receptor (Homo sapiens, UniProt P00533); assay: Inhibition of human EGFR preincubated for 10 mins followed by addition of FAM-labeled peptide and incubated for 10 mins by Caliper motility shift assay
[2] = system: HT-29; assay: Antiproliferative activity against human HT-29 cells after 48 hrs by MTT assay; assay type: functional, cell-based; conditions: HT-29, 48 h
[3] = system: NCI-H460; assay: Antiproliferative activity against human NCI-H460 cells after 48 hrs by MTT assay; assay type: functional, cell-based; conditions: NCI-H460, 48 h
[4] = target: Vascular endothelial growth factor receptor 2 (Homo sapiens, UniProt P35968); assay: Inhibition of human VEGFR-2 preincubated for 10 mins followed by addition of FAM-labeled peptide and incubated for 10 mins by Caliper motility shift assay
Vascular endothelial growth factor receptor 2, sequence (P35968 whole entry): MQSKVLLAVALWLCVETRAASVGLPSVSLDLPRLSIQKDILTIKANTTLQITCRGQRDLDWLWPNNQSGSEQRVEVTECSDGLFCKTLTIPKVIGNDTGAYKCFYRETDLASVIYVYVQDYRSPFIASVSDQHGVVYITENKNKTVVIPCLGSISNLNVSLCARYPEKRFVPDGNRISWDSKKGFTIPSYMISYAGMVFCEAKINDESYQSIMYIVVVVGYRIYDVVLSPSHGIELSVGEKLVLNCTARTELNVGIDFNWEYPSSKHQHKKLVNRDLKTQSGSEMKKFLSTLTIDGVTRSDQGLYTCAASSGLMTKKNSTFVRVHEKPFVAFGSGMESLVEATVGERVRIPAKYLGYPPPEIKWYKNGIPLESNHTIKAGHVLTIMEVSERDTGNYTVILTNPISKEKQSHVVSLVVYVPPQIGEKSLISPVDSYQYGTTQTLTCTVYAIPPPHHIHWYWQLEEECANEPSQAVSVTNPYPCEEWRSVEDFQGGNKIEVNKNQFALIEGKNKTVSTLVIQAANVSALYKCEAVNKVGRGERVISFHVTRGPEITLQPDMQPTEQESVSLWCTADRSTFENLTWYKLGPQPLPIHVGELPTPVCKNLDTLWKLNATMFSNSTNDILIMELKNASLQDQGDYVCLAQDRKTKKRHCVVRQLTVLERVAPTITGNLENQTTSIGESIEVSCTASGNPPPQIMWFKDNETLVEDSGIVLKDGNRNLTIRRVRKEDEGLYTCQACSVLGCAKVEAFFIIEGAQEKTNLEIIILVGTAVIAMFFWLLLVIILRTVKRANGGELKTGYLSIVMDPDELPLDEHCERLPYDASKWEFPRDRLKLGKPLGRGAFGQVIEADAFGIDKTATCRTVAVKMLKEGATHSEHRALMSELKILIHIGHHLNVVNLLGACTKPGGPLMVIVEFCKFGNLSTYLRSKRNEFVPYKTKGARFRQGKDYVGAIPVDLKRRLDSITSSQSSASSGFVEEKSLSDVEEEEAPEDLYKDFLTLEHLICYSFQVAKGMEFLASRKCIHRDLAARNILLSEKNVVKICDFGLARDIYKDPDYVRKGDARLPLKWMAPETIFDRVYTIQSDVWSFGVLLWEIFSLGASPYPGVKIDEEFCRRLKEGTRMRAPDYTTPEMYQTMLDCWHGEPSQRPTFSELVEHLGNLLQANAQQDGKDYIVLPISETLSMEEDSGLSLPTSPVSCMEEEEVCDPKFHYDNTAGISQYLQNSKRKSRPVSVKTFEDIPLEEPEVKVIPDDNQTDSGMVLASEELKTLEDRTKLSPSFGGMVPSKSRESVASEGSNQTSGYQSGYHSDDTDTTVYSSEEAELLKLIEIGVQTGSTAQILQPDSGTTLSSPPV

[5] = system: MCF7; assay: Antiproliferative activity against human MCF7 cells after 48 hrs by MTT assay; assay type: functional, cell-based; conditions: MCF7, 48 h

Epidermal growth factor receptor, sequence (P00533 whole entry): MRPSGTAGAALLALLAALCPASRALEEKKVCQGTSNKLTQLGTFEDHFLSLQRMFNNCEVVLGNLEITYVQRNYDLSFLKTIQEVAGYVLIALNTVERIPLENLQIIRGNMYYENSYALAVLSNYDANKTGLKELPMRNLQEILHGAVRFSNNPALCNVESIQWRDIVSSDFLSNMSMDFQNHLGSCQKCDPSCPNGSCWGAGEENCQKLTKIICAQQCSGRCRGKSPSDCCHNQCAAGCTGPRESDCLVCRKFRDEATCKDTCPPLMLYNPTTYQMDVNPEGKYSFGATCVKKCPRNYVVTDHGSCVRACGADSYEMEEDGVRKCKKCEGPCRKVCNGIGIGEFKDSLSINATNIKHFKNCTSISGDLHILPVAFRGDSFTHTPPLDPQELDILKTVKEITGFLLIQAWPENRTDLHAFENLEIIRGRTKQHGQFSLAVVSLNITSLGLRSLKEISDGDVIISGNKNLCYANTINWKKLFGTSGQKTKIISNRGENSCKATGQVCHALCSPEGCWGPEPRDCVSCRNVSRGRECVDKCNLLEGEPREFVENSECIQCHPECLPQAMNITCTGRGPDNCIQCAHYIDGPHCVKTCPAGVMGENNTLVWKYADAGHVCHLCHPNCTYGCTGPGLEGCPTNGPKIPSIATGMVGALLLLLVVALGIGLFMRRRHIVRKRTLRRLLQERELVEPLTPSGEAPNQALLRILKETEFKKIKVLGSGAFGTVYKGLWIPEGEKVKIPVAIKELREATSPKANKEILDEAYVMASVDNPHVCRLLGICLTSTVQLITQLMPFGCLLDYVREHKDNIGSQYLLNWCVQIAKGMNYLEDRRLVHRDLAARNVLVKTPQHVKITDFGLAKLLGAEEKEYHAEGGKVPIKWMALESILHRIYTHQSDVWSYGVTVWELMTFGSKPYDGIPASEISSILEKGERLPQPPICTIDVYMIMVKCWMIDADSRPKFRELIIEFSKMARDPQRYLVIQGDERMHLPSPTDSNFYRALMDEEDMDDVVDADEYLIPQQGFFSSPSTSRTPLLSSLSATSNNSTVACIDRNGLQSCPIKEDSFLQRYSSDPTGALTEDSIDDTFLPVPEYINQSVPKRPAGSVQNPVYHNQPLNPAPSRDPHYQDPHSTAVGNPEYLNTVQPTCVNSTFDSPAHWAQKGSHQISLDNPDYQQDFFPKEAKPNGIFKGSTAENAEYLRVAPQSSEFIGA

Row | SMILES | IC50 [1] | IC50 [2] | IC50 [3] | IC50 [4] | IC50 [5]
1 | COc1cc2c(Nc3ccc(NC(=O)c4ccc(Cl)cc4)cc3)ncnc2cc1OCCCN1CCOCC1 | 1.35 µM | 9.39 µM | 8 µM | 2.62 µM | 40.2 µM
2 | COc1cc2c(Nc3ccc(NC(=O)c4ccc(Cl)cc4)cc3)ncnc2cc1OCc1ccccc1 | > 10 µM | > 100 µM | 21.1 µM | > 10 µM | 56.4 µM
3 | COc1cc2c(Nc3ccc(NC(=O)c4ccc(C)cc4)cc3)ncnc2cc1OCCN1CCCCC1 | > 10 µM | 6.85 µM |  | 2.48 µM | 
4 | COc1cc2c(Nc3ccc(NC(=O)c4cccc(Cl)c4)cc3)ncnc2cc1OCCCN1CCOCC1 | 0.23 µM | 21.3 µM |  | 2.99 µM | 7.8 µM
5 | COc1cc2c(Nc3ccc(NC(=O)c4ccc(Cl)cc4)cc3)ncnc2cc1OCCCN1CCN(C)CC1 | 1.33 µM | 5.54 µM | 26 µM | 1.86 µM | 53.2 µM
6 | COc1cc2c(Nc3ccc(NC(=O)c4ccccc4)cc3)ncnc2cc1OCc1ccccc1 | > 10 µM | 7.37 µM | 62.4 µM | > 10 µM | > 100 µM
7 | COc1cc2c(Nc3ccc(NC(=O)c4ccccc4Cl)cc3)ncnc2cc1OCCCN1CCN(C)CC1 | 0.02 µM | 23.2 µM | 36.2 µM | 1.71 µM | 15.4 µM
8 | COc1cc2c(Nc3ccc(NC(=O)c4cccc(Cl)c4)cc3)ncnc2cc1OCCN1CCCCC1 | 0.3 µM | 7.94 µM |  | 1.99 µM | 4.34 µM
9 | COc1cc2c(Nc3ccc(NC(=O)c4ccc(C)cc4)cc3)ncnc2cc1OCCCN1CCOCC1 | 0.76 µM | 89.1 µM |  | 2 µM | 37.6 µM
10 | COc1cc2c(Nc3ccc(NC(=O)c4cccc(Cl)c4)cc3)ncnc2cc1OCCCN1CCN(C)CC1 | 0.15 µM | 5.27 µM | 12 µM | 1.81 µM | 4.41 µM
11 | COc1cc2c(Nc3ccc(NC(=O)c4ccc(C)cc4)cc3)ncnc2cc1OCc1ccccc1 | > 10 µM | > 100 µM | 46.1 µM | > 10 µM | > 100 µM
12 | COc1cc2c(Nc3ccc(NC(=O)c4ccccc4)cc3)ncnc2cc1OCCCN1CCN(C)CC1 |  | 31.3 µM | 27.2 µM | 0.56 µM | 39 µM
13 | COc1cc2c(Nc3ccc(NC(=O)c4ccc(Cl)cc4)cc3)ncnc2cc1OCCN1CCCCC1 | > 10 µM | 5.12 µM | 16 µM | 4.19 µM | 0.1 µM
14 | COc1cc2c(Nc3ccc(NC(=O)c4ccc(C)cc4)cc3)ncnc2cc1OCCCN1CCN(C)CC1 | 0.69 µM | 17.1 µM | 11.9 µM | 0.87 µM | 24.9 µM
15 | COc1cc2c(Nc3ccc(NC(=O)c4ccccc4)cc3)ncnc2cc1OCCN1CCCCC1 | 4.61 µM | 26.1 µM | 30 µM | 4.72 µM | 36 µM
16 | COc1cc2c(Nc3ccc(NC(=O)c4ccccc4Cl)cc3)ncnc2cc1OCc1ccccc1 | 0.73 µM | > 100 µM | 28.2 µM | > 10 µM | 78.2 µM
17 | COc1ccc(C(=O)Nc2ccc(Nc3ncnc4cc(OCc5ccccc5)c(OC)cc34)cc2)cc1 | > 10 µM | > 100 µM | 16.1 µM | > 10 µM | 
18 | COc1ccc(C(=O)Nc2ccc(Nc3ncnc4cc(OCCCN5CCN(C)CC5)c(OC)cc34)cc2)cc1 | 1.11 µM | 22.1 µM | 9.49 µM | 2.02 µM | 24.6 µM
19 | COc1cc2c(Nc3ccc(NC(=O)c4cccc(Cl)c4)cc3)ncnc2cc1OCc1ccccc1 | > 10 µM |  | 12.5 µM | > 10 µM | > 100 µM
